These results are taken from article PMC12751141, “Disrupting α-Synuclein–ClpP interaction restores mitochondrial function and attenuates neuropathology in Parkinson’s disease models” (Molecular Neurodegeneration, 2025).

Structures are written as SMILES.

For assay [1], the system named is αSyn–ClpP binding. Put plainly: Immunoprecipitation of recombinant ClpP and αSyn in vitro. Details: species or system human. The following applies: recombinant ClpP pre-incubated with peptide 30 min before αSyn; anti-ClpP IP; 3 independent experiments. Here is the method: The human recombinant WT- (#S-1001-2), A53T- (#S-1001-2), ΔNAC- (#S-1015-1) and ΔC- (#S-1012-1) αSyn and FITC-αSyn (S-1113-2) were purchased from rPeptide. The human recombinant αSyn pre-formed fibrils (PFF) (Type 1) (SPR-322) and ATTO-594-PFF (SPR-322B-A594) were purchased from StressMarq Biosciences (Bioactivity has been widely validated via various approaches, e.g. TEM, ThT).
Cells or tissues were lysed in total lysis buffer (50mM Tris-HCl, pH 7.5, 150mM NaCl, 1% Triton X-100, and protease inhibitor). Total protein lysates (800 µg) were incubated with the indicated antibodies overnight at 4 °C followed by the addition of protein A/G beads (sc-2003, Santa Cruz) for 2 h at 4 °C. Various recombinant αSyn and Clpp (500 ng) were incubated in in vitro interaction buffer (20mM Tris-HCl pH 7.5, 100mM KCl, 2mM MgCl2 and 0.1% Triton-X100) for 30 min at room temperature, and then incubated with indicated antibodies overnight at 4 °C followed by the addition of protein A/G beads for 2 h at 4 °C. The beads with immuno-precipitates were pulled down at 4000 g and washed four times with total lysis buffer/in vitro interaction buffer in the presence of 0.1% Triton X-100 and were analyzed by western blot analysis.

For assay [2], the system named is A53T-αSyn iPSC-derived neurons. Put plainly: Mitochondrial function (Mito-SOX, TMRM, ATP) in A53T-αSyn iPSC-derived neurons. The format is cell-based, human. The source says:
PD iPS cells lines (αSyn A53T, NN0004337, donor) and its isogenic corrected control line (NN0004344) were obtained from RUCDR Infinite Biologics. The iPS cells were differentiated into dopaminergic neuron-enriched neuronal culture with the protocol described previously. Briefly, iPS cell colonies were disassociated with accutase (Invitrogen), plated onto 6-well plates pre-coated with 2.5% Matrigel (BD Biosciences) and allowed to reach 80% confluence in mTeSR medium (Stem Cell Technology). For the first 10 days, cells were treated with SB431542 (10 µM; Tocris Bioscience) and Noggin (100 ng/ml) in Neural Media (NM) with FGF2 ([…]) and EGF ([…]). NM media contained: Neurobasal and DMEM/F12 (1:1), B-27 Supplement Minus Vitamin A (50×, Invitrogen), N2 Supplement (100X, Invitrogen), GlutaMAX (Invitrogen, 100×), 100 units/ml penicillin and 100 µg/ml streptomycin (Fisher); for the next 4 days, cells were treated with human recombinant Sonic hedgehog (SHH, 200 ng/ml) in neuronal differentiation medium. […]
Cells cultured on coverslips or 24-well plates were washed with DPBS and then incubated with 5 µM Mito-SOX™ Red (Invitrogen, M36008), a mitochondrial superoxide indicator, for 10 min at 37 °C. For cells cultured on coverslips, the images were visualized by microscope, and quantification of images was then carried out using NIH ImageJ software. At least 100 cells per group were counted in the analysis.
Cells cultured on coverslips or 24-well plates were washed with DPBS and then incubated with 0.25 µM Tetramethylrhodamine, methyl ester (TMRM) (Invitrogen, T668), for 20 min at 37 °C. For cells cultured on coverslips, the images were visualized by microscope, and quantification of images was then carried out using NIH Fiji ImageJ software. At least 100 cells per group were counted in the analysis.
Cells were seeded in 24-well plates, followed by the indicated treatment. The ATP level in each well was determined using the ATP assay kit according to the manufacturer’s procedures (Cayman Chemical, 700410).

In assay [3] the test system is ClpP (SH-SY5Y cells). Put plainly: ClpP protein level, western blot, SH-SY5Y cells. The format is cell-based. For orientation: Immunoblotting shows a protein as a band on a membrane.

For the compound `CC(C)[C@H](NC(=O)CNC(=O)CNC(=O)CCCCCNC(=O)[C@H](CCCNC(=N)N)NC(=O)[C@H](CCCNC(=N)N)NC(=O)[C@H](CCCNC(=N)N)NC(=O)[C@H](CCC(N)=O)NC(=O)[C@H](CCCNC(=N)N)NC(=O)[C@H](CCCNC(=N)N)NC(=O)[C@H](CCCCN)NC(=O)[C@H](CCCCN)NC(=O)[C@H](CCCNC(=N)N)NC(=O)CNC(=O)[C@@H](N)Cc1ccc(O)cc1)C(=O)N[C@H](C(=O)N[C@H](C(=O)N[C@@H](C)C(=O)O)[C@@H](C)O)C(C)C` [CS2, TAT-C6-GGVVTA], the “αSyn–ClpP binding, recombinant” value in assay [1] is “significantly reduced αSyn–ClpP binding”. Besides, the “mitochondrial ROS, iPSC neurons” value in assay [2] (Mito-SOX, n = 3) is reported as “reduced mitochondrial ROS”. Moreover, the “mitochondrial membrane potential, iPSC neurons” value in assay [2] (TMRM, n = 3) is “rescued mitochondrial membrane potential”. Further, the “ATP content, iPSC neurons” value in assay [2] (n = 6) was “rescued mitochondrial membrane potential and ATP content”. Besides, the “ClpP level, Tet-inducible αSyn SH-SY5Y” value in assay [3] (Tet-inducible αSyn-expressing SH-SY5Y, vs TAT, n = 3) is “marked increase in ClpP levels”. Besides, the “ClpP protein level, SH-SY5Y” value in assay [3] (WT or A53T αSyn overexpression, 30 min pretreatment, n = 4–5 (CS1: n = 4)) is given as “significantly restored ClpP protein levels”.
